Laboratory results from US20140187595A1 (INSERM (Institut National de la Sante et de la Recherche …, priority 2010, published 2014).

Assays:
[1] = test system: splicing defects associated with myotonic dystrophy; conditions: Warf et al. 2009; cited from earlier work
[2] = test system: INSR splicing (±exon 11) in DM1 MPCs; assay: INSR splicing (±exon 11, INSR-A/INSR-B ratio) by quantitative PCR in DM1 MPCs; assay type: cell-based, human
[3] = test system: cTNT splicing (±exon 5), pRG6 minigene; assay: cTNT splicing (±exon 5) by RT-PCR in MPCs transfected with pRG6 minigene; assay type: cell-based, human; conditions: 25 mM, DM1 MPCs
Description: FIG. 1E cTNT splicing (±exon 5) in WT and DM1 MPCs cotransfected with the indicated expression vectors and the pSG (d) or pRG6 (e) minigenes respectively (means ±s.d., n=3).
TNNT2 (cTNT) was chosen because, opposite to INSR, abnormal splicing in DM1 leads to the inclusion of an exon (exon 5)^4. As TNNT2 is not expressed in MPCs, cells were transfected with the RG6 minigene^13 based upon the chicken orthologue.

WT MPCs = assay: INSR and cTNT splicing in WT cells; assay type: cell-based, human
DM1 myoblasts = assay: Splicing in immortalized myoblasts from DM1 patients; assay type: cell-based, human
Description: FIGS. 4A and 4B. Effects of AMPK activators on INSR splicing defect in immortalized myoblasts or freshly isolated peripheral blood lymphocytes (PBLs) from DM1 patients.

[4] = Toxicity in mouse at end of metformin treatment; assay type: in vivo, C57BL/6NCr1 mouse; conditions: 200 and 600 mg/Kg/day by gavage
Description: Enhancement of Ank2 exon 21 and Capzb exon 8 inclusion, INSR exon 11 and Nfix exon […] exclusion or Alp exons 5a and 5b alternative splicing associated to a rescuing effect of DM1 missplicings in mouse skeletal muscle were observed.

[5] = test system: pre-mRNA splicing (Ank2, Capzb, INSR, Nfix, Alp); conditions: higher dose (600 mg/Kg/day), mouse heart
DM1 cells = assay: Toxicity on repeated daily treatment of DM1 cells; conditions: 10 mM repeated daily for up to 10 days

SMILES	splicing defects associated with myotonic dystrophy [1]	corrective effect on INSR splicing after repeated treatment ([2]; 10 mM daily for up to 10 days)	INSR splicing (±exon 11) rescue ([2]; 24 h-treatment, increasing concentrations)	exogenous cTNT splicing (±exon 5) [3]	exogenous cTNT splicing (±exon 5) ([3]; listed as Metformin)	"MBNL1-related" splicing of the two genes (INSR, cTNT) (WT MPCs)	INSR transcript exon 11 (DM1 myoblasts)	SERCA1 transcript exon 22 (DM1 myoblasts)	ZASP transcript exon 10 (DM1 myoblasts)	endogenous human cTNT transcript exon 5 (DM1 myoblasts)	toxicity at the end of the treatment period [4]	INSR exon 11 exclusion in the heart [5]	toxicity (DM1 cells)
N=C(N)c1ccc(OCCCCCOc2ccc(C(=N)N)cc2)cc1 [Pentamidine, pentamidine]	reverses the splicing defects												
CN(C)C(=N)N=C(N)N [metformin]		maintained corrective effect	partially rescues	decreased inclusion of exon 5	restores	efficient in facilitating	exon 11 inclusion	exon 22 inclusion	exon 10 skipping	exon 5 skipping	No sign of toxicity	enhancement of INSR exon 11 exclusion was also observed	no observed toxicity
